Read-outs that look alike come from different tables or passages of the source.
Target: T1, AgKv2.1 (voltage-gated potassium channel Kv2.1) (Anopheles gambiae, UniProt Q5TT67)
T1 construct: gene 1274312
T1 sequence (Q5TT67 1-1014): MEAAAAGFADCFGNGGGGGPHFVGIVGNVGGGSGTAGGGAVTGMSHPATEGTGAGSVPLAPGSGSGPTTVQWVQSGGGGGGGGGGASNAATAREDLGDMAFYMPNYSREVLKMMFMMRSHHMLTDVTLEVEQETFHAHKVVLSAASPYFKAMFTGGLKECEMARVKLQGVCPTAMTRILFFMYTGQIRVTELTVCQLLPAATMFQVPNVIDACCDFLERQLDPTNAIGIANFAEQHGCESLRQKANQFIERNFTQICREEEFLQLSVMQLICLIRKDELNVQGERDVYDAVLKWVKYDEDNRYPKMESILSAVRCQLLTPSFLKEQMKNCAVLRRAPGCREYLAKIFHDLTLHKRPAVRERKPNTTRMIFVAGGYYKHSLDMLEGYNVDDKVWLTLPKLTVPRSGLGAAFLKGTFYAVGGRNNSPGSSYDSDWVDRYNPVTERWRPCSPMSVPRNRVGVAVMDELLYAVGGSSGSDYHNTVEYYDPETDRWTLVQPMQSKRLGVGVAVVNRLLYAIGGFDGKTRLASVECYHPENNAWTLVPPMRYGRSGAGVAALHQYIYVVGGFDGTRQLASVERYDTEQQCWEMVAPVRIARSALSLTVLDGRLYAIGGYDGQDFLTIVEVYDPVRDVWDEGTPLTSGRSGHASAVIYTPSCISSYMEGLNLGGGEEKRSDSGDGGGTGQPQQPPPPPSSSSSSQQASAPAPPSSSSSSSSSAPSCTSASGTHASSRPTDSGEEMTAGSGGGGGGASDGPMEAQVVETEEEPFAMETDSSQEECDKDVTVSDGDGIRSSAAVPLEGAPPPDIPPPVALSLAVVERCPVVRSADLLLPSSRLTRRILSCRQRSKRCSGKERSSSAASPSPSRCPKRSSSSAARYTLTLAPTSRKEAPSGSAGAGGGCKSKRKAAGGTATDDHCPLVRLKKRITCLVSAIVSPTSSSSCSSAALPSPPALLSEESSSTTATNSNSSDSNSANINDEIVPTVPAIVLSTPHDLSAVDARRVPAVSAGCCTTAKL
Test: whole-cell patch-clamp of HEK-293 cells expressing AgKv2.[…], current inhibition at +[…] mV
Format: cell-based

| IC50 (read-out: Patch Clamp / IC50 /) [nM] | Structure (SMILES) | IC50 [nM] |
| --- | --- | --- |
| 30000 | CCCCCC(O)CCCC(=O)O (stereo not drawn) [5-HDC] |  |
| 1180 | CN(C)c1cccc2c(S(=O)(=O)NCCCCCCCCCCC(=O)O)cccc12 [DAUDA] |  |
|  | CCCCCCCCCC(=O)O [decanoic acid] | 610 |

Source: paper PMC6315728, “Fatty Acid and Related Potassium Kv2 Channel Blockers: Toxicity and Physiological Actions on Mosquitoes” (Insects, 2018)
